In US6313094A, “β-amino-α-hydroxycarboxylic acid derivatives and HIV protease inhibitors” (priority 1990, dated 2001):
*1 amine or outer side, *2 acyl side, *3 side chain or, on linkers, in order; H or OH if unused. Where a SMILES comes first, the peptide text is derived from it. [ ]: non-standard residue; d: D form. The star is where a group is joined. X1 = O=C([C@@H](O)[C@H](Cc1ccccc1)N[*:1])[*:2]; PhAc = O=C(Cc1ccccc1)*

Molecular target: T1, chemically synthesized HIV protease (Human immunodeficiency virus type 1 group M subtype B, UniProt P12497, C555A/C583A)
T1 construct: The HIV protease was chemically synthesized; made in house; host or cells: chemical (peptide) synthesis, no expression host
Type: biochemical
Details: expected; compound only said to be preparable
Protocol: (§1) The HIV protease was chemically synthesized by replacement of two cysteine residues in the natural sequence [Science, 230, 949 (1985)] with alanine residues. The reaction mixture contained 100 mM MES buffer (pH 5.5), 40 mM of substrate (Ac-[…]NH, trifluoroacetate), inhibitors at varying concentrations dissolved in DMSO and 9.2 μg of the HIV protease in a total volume of 15 μl. Incubation was carried out at 37° C. for 60 min. The reaction was started by the addition of the enzyme and terminated by 15 μl of acetonitrile. The amount of a fragment peptide produced was measured by reversed-phase HPLC analysis using an internal standerd. The HPLC condition was as followes.
Solvent A: 0.1% trifluoroacetic acid aqueous solution
Gradient: B was increased in 1.0%/min from 100% of A,

Compound | inhibitory activity against the HIV protease
5Isoquinoline-O--CH2 CO-Asn-(2S,3S)-AHPBA-Thz-NH-tBu [Example 192] | high inhibitory activity

Same assay, conditions: inhibitor 50 nM

Compound | Residual Activity (%)
1-Isoquinolinecarbonyl-Asn-(2S,3S)-AHPBA-Pro-NH-tBu [Example 140] | 72.8
1-NaPhthoxyacetyl-Prg-(2S,3S)-AHPBA-Thz-NH-tBu [Example 180] | 26.0
1-Naphtboxyacetyl-Msv-(2S,3S)-AHPBA-Thz-NH-tBu [Example 155] | 7.3
1-Naphthoxyacetyl-Ile-(2S,3S)-AHPBA-Thz-NH-tBu [Example 161] | 7.0
1-Naphthoxyacetyl-Msa-(2S,3S)-AHPBA-Dmp-NH-tBu [Example 183] | 4.3
1-Naphthoxyacetyl-Msa-(2S,3S)-AHPBA-Thz-Pip-O--CH3 [Example 159] | 90.8
1-Naphthoxyacetyl-Mta-(2S,3S)-AHPBA-Thz-NH-tBu [Example 162] | 2.9
1-Naphthoxyacetyl-Mtv-(2S,3S)-AHPBA-Thz-NH-tBu [Example 154] | 35.4
1-Napthoxyacetyl-Sma-(2S,3S)-AHPBA-Pro-NH-tBu [Example 98] | 70.5
2-Naphthoxyacetyl-Msa-(2S,3S)-AHPBA-Pro-NH-tBu [Example 131] | 28.8
2-Quinolinecarbonyl-Asn-(2S,3S)-AHPBA-Dtc-NH-tBu [Example 118] | 1.8
Benzyloxycarbonyl-Asn-(2S3S)-AHPBA-Pro-NHsBu [Example 176] | 82.6
Benzyloxycarbonyl-Asn-(2S,3S)-AHPBA-Cpp-NH-tBu [Example 185] | 96.0
Benzyloxycarbonyl-Asn-(2S,3S)-AHPBA-Dtc-NH-tBu [Example 104] | 3.8
Benzyloxycarbonyl-Asn-(2S,3S)-AHPBA-Pro-NH--C(CH3)2 --CH2 OH [Example 99] | 62.2
Benzyloxycarbonyt-Asn-(2S,3S)-AHPBA-Ccp-NH-tBu [Example 187] | 99.0
Bis(4-chlorophenyl)methyloxyacetyl-Asn-(2S,3S)-AHPBA-Pro-NH-tBu [Example 94] | 37.0
PhCH2 -O--CO-Asn-(2S,3S)-AHPBA-(D)-Tic-NH-tBu [Example 103] | 91.4
PhCH2 -O--CO-Asn-(2S,3S)-AHPBA-(L)-Tic-NH-tBu [Example 102] | 89.2

Same assay, conditions: inhibitor 5 μM (final concentration)

Compound | Residual Activity (%)
1-Naphthoxyacetyl-Msa-(2S,3S)-AHPBA-Thz-NH-chex-ol [Example 158] | < 10
3-Phenylpropionyl-Msa-(2S,3S)-AHPBA-Pro-Ile-Val-NH2 [Example 62] | 3.2
3-Phenylpropionyl-Smc(O)-(2S,3S)-AHPBA-Pro-Ile-Val-NH2 [Example 61] | 90.9
CC[C@H](C)[C@H](NC(=O)[C@@H]1CCCN1C(=O)[C@@H](O)[C@H](Cc1ccccc1)NC(=O)[C@H](CO)NC(=O)Cc1ccccc1)C(=O)N[C@H](C(N)=O)C(C)C [Example 20, Phenylacetyl-Ser-(2S,3S)-AHPBA-Pro-Ile-Val-NH2] (PhAc-S[X1]PIV-NH2) | 42.8
CC(C)(C)NC(=O)[C@@H]1CCCN1C(=O)[C@@H](O)[C@H](Cc1ccccc1)NC(=O)[C@H](CC(N)=O)NC(=O)OCc1ccccc1 [Example 55, Benzyloxycarbonyl-Asn-(2S,3S)-AHPBA-Pro-NH-tBu] | 3.5
CC(C)(C)NC(=O)[C@@H]1CCCN1C(=O)[C@H](O)[C@H](Cc1ccccc1)NC(=O)[C@H](CC(N)=O)NC(=O)OCc1ccccc1 [Example 56, Benzyloxycarbonyl-Asn-(2R,3S)-AHPBA-Pro-NH-tBu] | 95.1
NC(=O)C[C@H](NC(=O)OCc1ccccc1)C(=O)N[C@@H](Cc1ccccc1)[C@H](O)C(=O)N1CCC[C@H]1C(=O)NC1CCCCC1 [Example 84, Benzyloxycarbonyl-Asn-(2S,3S)-AHPBA-Pro-NH--C6 H11] | 9.6
CC(C)NC(=O)[C@@H]1CCCN1C(=O)[C@@H](O)[C@H](Cc1ccccc1)NC(=O)[C@H](CC(N)=O)NC(=O)OCc1ccccc1 [Example 85, Benzyloxycarbonyl-Asn-(2S,3S)-AHPBA-Pro-NH--CH(CH3)2] | 10.0
CC(C)(C)NC(=O)[C@@H]1CCCN1C(=O)[C@@H](O)[C@H](Cc1ccccc1)NC(=O)[C@H](CS(C)(=O)=O)NC(=O)OCc1cccc2ccccc12 [Example 90, 1-Naphthylmethyloxycarbonyl-Msa-(2S,3S)-AHPBA-Pro-NH-tBu] | 1.5
Benzyloxycarbonyl-Asn-(2S,3S)-AHPBA-(D)-Pip-NH-tBu [Example 79] | 84.0
Benzyloxycarbonyl-Asn-(2S,3S)-AHPBA-Pro-Aib-NH2 [Example 93] | < 10
Benzyloxycarbonyl-Asn-(2S,3S)-AHPBA-Pro-Ile-NH--CH2 --C6 H11 [Example 32] | 4.0
Benzyloxycarbonyl-Asn-(2S,3S)-AHPBA-Pro-NH--CH2 --C(CH3)3 [Example 83] | 12.4
Benzyloxycarbonyl-Asn-(2S,3S)-AHPBA-Pro-NH--CH(C2 H5)2 [Example 89] | < 10
Benzyloxycarbonyl-Asn-(2S,3S)-AHPBA-Pro-NH-cycloropyl [Example 88] | < 10
Benzyloxycarbonyl-Asn-(2S,3S)-AHPBA-Pro-NH-tAmyl [Example 87] | 5.8
Benzyloxycarbonyl-Asn-(2S,3S)-AHPBA-Thz-NH-tBu [Example 82] | 1.3
Benzyloxycarbonyl-Val-(2R,3S)-AHPBA-Phe-NH--CH2 --CH(CH3)2 [Example 54] | 84.9
Benzyloxycarbonyl-Val-(2R,3S)-AHPBA-Phe-Val-NH--CH2 --CH(CH3)2 [Example 53] | 83.4
Boc-Sma-(2S,3S)-AHPBA-Pro-NH-tBu [Example 97] | 92.9
Furancarbonyl-Asn-(2S,3S)-AHPBA-Pro-Ile-Val-NH2 [Example 65] | 9.3
PhCH2 -O--CO-Asn-(2S,3S)-AHPBA-Pro-NH--CH2 --C6 H11 [Example 49] | 51.9
Thiophenecarbonyl-Asn-(2S,3S)-AHPBA-Pro-Ile-Val-NH2 [Example 67] | 4.9

Same assay, conditions: inhibitor 1 mM

Compound | Residual Activity (%)
CC[C@H](C)[C@H](NC(=O)[C@@H]1CCCN1C(=O)[C@@H](O)[C@H](Cc1ccccc1)NC(=O)[C@H](CO)NC(=O)Cc1ccccc1)C(=O)N[C@H](C(N)=O)C(C)C [Example 20, Phenylacetyl-Ser-(2S,3S)-AHPBA-Pro-Ile-Val-NH2] (PhAc-S[X1]PIV-NH2) | 2.8

Molecular target: recombinant HIV protease (Human immunodeficiency virus type 1 group M subtype B, UniProt P12497)
Details: inhibitor 5 μM (final concentration); 2.0 μg enzyme
Protocol: as §1

Compound | residual enzymic activity [%]
Benzyloxycarbonyl-Asn-(2S,3S)-AHPBA-Pro-Ile-NH--CH2 --C6 H11 [Example 32] | 11.0
